Test results from patent US10801035B2, “Plants having increased tolerance to herbicides” (BASF SE, priority 2011, dated 2020).

Tests used:
[1] = tested on: Wild type soybean plants; assay: Greenhouse herbicide spray test, non-transformed soybean cuttings; assay type: in vivo, Glycine max; details: Wild type (no transgene), two weeks after herbicide treatment
Protocol: Transgenic plants expressing heterologous HPPD or HST enzymes are tested for tolerance against coumarone-derivative herbicides in greenhouse experiments.
For post emergence treatment, the test plants are first grown to a height of 3 to 15 cm, depending on the plant habit, and only then treated with the herbicides. For this purpose, the test plants are either sown directly and grown in the same containers, or they are first grown separately and transplanted into the test containers a few days prior to treatment.
For testing of T0 plants, cuttings can be used. In the case of soybean plants, an optimal shoot for cutting is about 7.5 to 10 cm tall, with at least two nodes present. Each cutting is taken from the original transformant (mother plant) and dipped into rooting hormone powder (indole-3-butyric acid, IBA). The cutting is then placed in oasis wedges inside a bio-dome. Wild type cuttings are also taken simultaneously to serve as controls. The cuttings are kept in the biodome for 5-7 days and then transplanted to pots and then acclimated in the growth chamber for two more days. Subsequently, the cuttings are transferred to the greenhouse, acclimated for approximately 4 days, and then subjected to spray tests as indicated.
Depending on the species, the plants are kept at 10-25° C. or 20-35° C. The test period extends over 3 weeks. During this time, the plants are tended and their response to the individual treatments is evaluated. Herbicide injury evaluations are taken at 2 and 3 weeks after treatment. Plant injury is rated on a scale of 0 to 9, 0 being no injury and 9 being complete death. Tolerance to coumarone-derivative herbicides can also be assessed in Arabidopsis. In this case transgenic Arabidopsis thaliana plants are assayed for improved tolerance to coumarone-derivative herbicides in 48-well plates. […] Seven to ten days after seeding growth inhibition is evaluated by comparison to wild type plants. Tolerance factor is calculated by dividing the plant growth IC50 value of transgenic plants containing a HPPD and/or HST sequence by that of wildtype plants. […]

[2] = molecular target: T1, Arabidopsis HPPD variant M335H (Arabidopsis thaliana, UniProt P93836, M335H); assay: HPPD activity assay, Arabidopsis HPPD mutant M335H; assay type: biochemical; details: normalized on wildtype
T1 construct: His6 (N); made in house; host or cells: E. coli BL21 (DE3)
Protocol: HPPD produces homogentisic acid and CO2 from 4-hydroxyphenylpyruvate (4-HPP) and O2. The activity assay for HPPD is based on the analysis of homogentisic acid by reversed phase HPLC.
The assay mixture can contain 150 mM potassium phosphate buffer pH 7.0, 50 mM L-ascorbic acid, 1 μM FeSO4 and 7 μg of purified enzyme in a total volume of 1 ml. Inhibitors are dissolved in DMSO (dimethylsulfoxide) to a concentration of 20 mM or 0.5 mM, respectively. From this stock solution serial five-fold dilutions are prepared in DMSO, which are used in the assay. The respective inhibitor solution accounts for 1% of the assay volume. Thus, final inhibitor concentrations range from 200 μM to 2.5 nM or from 5 μM to 63 pM, respectively. After a preincubation of 30 min the reaction is started by adding 4-HPP to a final concentration of 0.1 mM. […]
Inhibitors are dissolved in DMSO (dimethylsulfoxide) to a concentration of 0.5 mM. […] IC50 values are calculated using non-linear regression.
Purified, mutant HPPD enzymes are obtained by the methods described above. […] Apparent michaelis constants (Km) and maximal reaction velocities (Vmax) are calculated by non-linear regression with the software GraphPad Prism 5 (GraphPad Software, La Jolla, USA) using a substrate inhibition model. […] Weighted means (by standard error) of Km and […] values are calculated from at least three independent experiments. […]

T1 sequence (P93836 whole entry M335H): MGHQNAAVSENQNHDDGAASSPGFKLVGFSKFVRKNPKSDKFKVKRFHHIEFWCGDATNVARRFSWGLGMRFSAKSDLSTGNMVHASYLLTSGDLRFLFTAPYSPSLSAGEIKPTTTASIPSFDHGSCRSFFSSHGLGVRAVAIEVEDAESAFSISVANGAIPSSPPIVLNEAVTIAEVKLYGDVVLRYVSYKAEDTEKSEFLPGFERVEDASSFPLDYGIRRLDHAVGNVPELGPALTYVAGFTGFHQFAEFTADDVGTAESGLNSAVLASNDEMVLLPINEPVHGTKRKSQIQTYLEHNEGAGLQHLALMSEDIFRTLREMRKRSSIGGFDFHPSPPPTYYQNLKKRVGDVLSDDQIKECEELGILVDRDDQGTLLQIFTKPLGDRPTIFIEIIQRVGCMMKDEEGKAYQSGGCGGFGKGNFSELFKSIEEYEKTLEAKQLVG

Row | Compound | Injury evaluation ([1]; dose 62 g/ha) | Injury evaluation ([1]; dose 125 g/ha) | Injury evaluation ([1]; dose 250 g/ha) | Normalized tolerance index (TI) [2]
1 | CC1=NOC(c2c(Cl)ccc(C3=C(O)c4ncccc4N(CC(F)F)S3(=O)=O)c2Cl)C1 (stereo not shown) [Inhibitor 1, 3-[2,4-dichloro-3-(3-methyl-4,5-dihydroisoxazol-5-yl)phenyl]-1-(2,2-difluoroethyl)-2,2-dioxo-pyrido[3,2-c]thiazin-4-ol] | 26 | 44 | 68 | 
2 | O=S1(=O)C(c2c(Cl)cc(Cl)nc2Cl)=C(O)c2ncccc2N1CC(F)F [Inhibitor 2, 1-(2,2-difluoroethyl)-2,2-dioxo-3-(2,4,6-trichloro-3-pyridyl)pyrido[3,2-c]thiazin-4-ol] |  |  |  | 0.2
